Test results taken from patent publication US10450566B2, “Compounds for inducing anti-tumor immunity and methods thereof” (Cornell University, priority 2013, dated 2019).

Legend:
Type in all cases: cell-based, mouse
4-HNE-protein adducts = 4-HNE-protein adducts in DCs by competitive ELISA
Method: (§1) Murine recombinant cytokines were purchased from Peprotech. Cobalt chloride, Tunicamycin (used at 1 μg/ml), Tiron (used at 100-500 μM) and Vitamin E (α-tocopherol, used at 50-100 μM) were from Sigma. DCFDA staining was utilized for intracellular ROS detection (Abcam). Purified 4-HNE was obtained from Cayman Chemical and 4-HNE-protein adducts in ascites samples and DCs were detected and quantified through competitive ELISA (Cell Biolabs). TOFA (Cayman Chemical) was used at a final concentration of 5 μg/ml to inhibit fatty acid synthesis in DCs by blocking the synthesis of malonyl-CoA by acetyl-CoA carboxylase. The IRE-1α-specific inhibitor 4μ8c (Millipore) was used at a final concentration of 10 μM.
(§2) Whether these reactive aldehyde byproducts could trigger ER stress in DCs was investigated. […] Accordingly, intracellular 4-HNE-protein adducts were also readily found in tDCs isolated from these malignant samples (FIG. 4D). 4-HNE generation in mouse tDCs exposed to cell-free ovarian cancer ascites decreased upon exposure to the common antioxidant Vitamin E (FIG. 4E).

XBP1 = XBP1 splicing and ER stress/lipid gene expression in naïve sDCs by RT-PCR/RT-qPCR
Method: as §1
Total RNA from human samples was isolated using the miRVANA miRNA isolation Kit (Life Technologies). RNA from mouse samples was isolated using the Qiazol reagent (Qiagen). […] of RNA were used to generate cDNA using the High Capacity cDNA Reverse Transcription Kit (Life Technologies). Human and mouse Xbp1 splicing assays were performed as described (Lee et al., 2003a; Martinon et al., 2010) using conventional Reverse Transcription PCR (RT-PCR) and primers shown in Table 1. Gene expression analysis was done via Reverse Transcription quantitative PCR (RT-qPCR) using a Stratagene Mx3005 instrument and SYBR green I (Life Technologies). […] All primers used in this study are described in Table 1.
One goal of the present invention was to investigate how the tumor microenvironment influences the functional status of XBP1 in DCs. In particular, one aim of the present invention was to investigate whether cancer-derived factors could participate in triggering ER stress and XBP1 activation in tumor-infiltrating DCs, and determine whether this process could impact the detrimental function of these innate immune cells in hosts with ovarian cancer. […] In particular, naïve sDCs were isolated and stimulated for 24h with cytokines (e.g., IL-10, TGF-β, VEGFα, KC, CCL3, IL-6) at concentrations ranging from 5 ng/ml to 25 ng/ml (FIG. 3A-D). Cells were also exposed for 24 hours to increasing concentrations of cobalt chloride (CoCl2), a chemical inducer of the HIF1α pathway that mimics low oxygen conditions (Piret et al. 2002) (FIG. 3E-F). Splicing and upregulation of XBP1 was determined by RT-qPCR analysis (FIG. 3).
as §2

tDCs [1] = assay: Intracellular lipid content of tDCs by BODIPY 493/503 staining and flow cytometry; settings: tDCs with 25% cell-free ovarian cancer ascites, 24h, Bodipy493/503
Method: FIG. 9G: graphically depicts the intracellular lipid content of tDCs incubated in vitro with 25% cell-free ovarian cancer ascites supernatants in the presence of the indicated inhibitors. Intracellular lipid content was assessed 24h later via Bodipy493/503 staining. Data are representative of 3 independent experiments with similar results. #P<0.05 compared with control tDC incubated in the absence of cell-free ascites supernatants. *P<0.05 compared with ascites-exposed tDC but left untreated.
as §1
Intracellular lipid content in DCs was evaluated via flow cytometry using 4,4-Difluoro-1,3,5,7,8-Pentamethyl-4-Bora-3a,4a-Diaza-s-Indacene (BODIPY 493/503, Life Technologies) as previously reported (Herber et al., 2010). […] Cells were washed twice with 1×PBS and stained with 500 μl of BODIPY 493/503 at […] in PBS for 15 min at room temperature in the dark. Cells were washed twice and analyzed by flow cytometry. BODIPY 493/503 staining was detected in the PE channel. For intracellular cytokine staining, 5×10^6 cells isolated from malignant peritoneal wash samples of ovarian cancer-bearing mice were stimulated for 6h in 10% FBS complete RPMI containing PMA (Calbiochem), lonomycin (Calbiochem) and Brefeldin A (BioLegend). […] Flow cytometry data was analyzed using FlowJo version 9 or 10.

tDCs [2] = assay: In vitro antigen presentation: OVA-pulsed tDCs cocultured with CFSE-labeled OT-1 T cells; settings: wild type tDC pre-treated, full-length OVA, cell-free malignant ascites
Method: For in vitro antigen presentation experiments, tDC or sDC were sorted from the peritoneal cavity or spleen of XBP1^f/f or XBP1^f/f CD11c-Cre female mice bearing ID8-Defb29/Vegf-A ovarian tumors for 4 weeks (FIG. 1). tDCs were pulsed for overnight 50 μg/ml of full-length endotoxin-free OVA (SIGMA, Grade VII) in the presence or absence of Vitamin E (50 μg/ml) in media containing 25% cell-free ovarian cancer ascites supernatants. DCs were washed twice and cocultured for 3 days with CFSE-labeled CD8^+ T cells immunopurified from OT-1 mice at a 1:10 (DC to T cell) ratio, as previously described (Scarlett et al., 2009).

[3] = naïve sDCs exposed for 3h to increasing amounts

## CCCCCC(O)/C=C/C=O (stereo not drawn) [4-HNE, 4-hydroxy-trans-2-nonenal]
4-HNE-protein adducts; naïve sDCs, increasing concentrations of purified 4-HNE
  formation of intracellular 4-HNE-protein adducts: efficiently formed covalent adducts with intracellular proteins
XBP1; [3]
  BiP and CHOP gene expression (general ER stress response markers): robust induction
  ERdj4 gene expression: upregulation
  splicing of the Xbp1 mRNA: rapidly triggered splicing of the Xbp1 mRNA
XBP1; naïve sDCs stimulated for 3h
  expression of lipid biosynthetic genes Agpat6, Fasn and Lpar1: rapidly upregulated

## Cc1cc(=O)oc2c(C=O)c(O)ccc12 [4μ8c]
tDCs [1]
  intracellular lipid content of tDCs: restricted the observed ascites-induced lipid biogenesis

## CCCCCCCCCCCCCCOc1ccc(C(=O)O)o1 [TOFA]
tDCs [1]
  intracellular lipid content of tDCs: prevented

## Cc1c(C)c2c(c(C)c1O)CC[C@@](C)(CCC[C@H](C)CCC[C@H](C)CCCC(C)C)O2 [Vitamin E, α-tocopherol]
tDCs [2]
  antigen-presenting capacity (expansion of OT-1 T cells): phenocopied the enhanced antigen-presenting capacity exhibited by XBP1-deficient tDCs
tDCs [1]
  intracellular lipid content of tDCs: reduced intracellular lipid content
4-HNE-protein adducts; mouse tDCs exposed to cell-free ovarian cancer ascites
  4-HNE generation (intracellular 4-HNE-protein adducts) in tDCs: decreased
